Source: patent EP0377642B1, “HERBICIDES FOR WEED CONTROL IN RICE” (E.I. DU PONT DE NEMOURS AND COMPANY, priority 1987, dated 1989)

Tested on: Ludwigia linifolia
Experiment: Herbicidal efficacy with Bensulfuron methyl and 2,4-D in Thailand (Table 18)
Assay type: in vivo
Details: 13 days after treatment
In short: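 Spray treatments, given solo or as mixtures with other herbicides, are applied by hand sprayer to direct-seeded or transplanted rice grown in the field in the U.S. and Southeast Asia.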

Measured: % CONTROL OR INJURY LL

COC(=O)c1ccccc1CS(=O)(=O)NC(=O)Nc1nc(OC)cc(OC)n1 [Bensulfuron methyl, methyl 2-[[[[[(4,6-dimethoxy-2-pyrimidinyl)amino]carbonyl]amino]sulfonyl]methyl]benzoate]
100%: 10 GAI/HA | 15 GAI/HA | 20 GAI/HA
